Experimental findings from patent publication US20260265262A1, “CDK2 INHIBITORS AND METHODS OF USING THE SAME” (Cedilla Therapeutics, Inc., priority 2022, published 2026) are described below.

The target of assay [1] is T1, CDK2/Cyclin E1 (Homo sapiens, UniProt P24941). The experiment in a line: CDK2/Cyclin E1 Caliper LabChip EZ Reader mobility shift assay. In kind it is biochemical. As to conditions: 2.5 nM CDK2/Cyclin E1, 100 μM ATP, 1.5 μM fluorescent peptide, 30 min pre-incubation; read-out: Caliper Assay (CDK2/CCNE1): IC50. The method, then:
Inhibition of CDK2/Cyclin E1 activity in the presence of compounds of the present disclosure was evaluated using a CaliperLabChip® EZ Reader mobility shift assay. In the assay, CDK2/Cyclin E1 (Eurofins, 14-475) catalyzed the phosphorylation of a fluorescently tagged peptide 5-FAM-QSPKKG-CONH2 (PerkinEliner, FL Peptide 18) which induced a difference in capillary electrophoresis mobility. The peptide substrate and product were measured, and the conversion ratio was used to determine the inhibition (as % activity and IC50 values) of CDK2/Cyclin E1. Reactions contained 50 mM HEPES pH 7.5, 10 mM MgCl2, 1 mM EDTA, 2 mM DTT, 0.01% Brij35, 0.5 mg/mL BSA, 0.1% DMSO, 2.5 nM CDK2/Cyclin E1, 100 μM ATP, and 1.5 μM fluorescent peptide substrate.
Dose titrations of inhibitors in 100% DMSO were combined with 3.25 nM CDK2/Cyclin E1 and 130 μM of ATP in reaction buffer. The mixtures were incubated for 30 minutes before the addition of fluorescent peptide substrate to initiate the kinase reaction. The final conditions were 2.5 nM CDK2/Cyclin E1, 100 μM ATP, and 1.5 μM fluorescent peptide. The reactions were stopped after 100 minutes with the addition of EDTA (400 mM final EDTA concentration). The stopped reactions were analyzed on a Caliper LabChip® EZ Reader II. The conversion ratios were normalized to yield % activity, plotted against compound concentration, and fit to a four-parameter equation to determine the IC50 for each compound.

Assay [2] addresses T1, CDK2/Cyclin E1. The experiment in a line: ADP-Glo Luminescent Kinase Assay (CDK2/E1-37C). Type of assay: biochemical. The settings on record: 0.18 nM CDK2/Cyclin E1, 100 μM ATP, 1.5 μM Histone H1, 37° C., 60 min pre-incubation; read-out: ADPGLO (CDK2/E1-37C): IC50. Put shortly: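 Human CDK2/Cyclin E1 preincubated with inhibitor 60 min at 37 °C, then reacted 90 min at 37 °C with final 0.18 nM enzyme, 100 μM ATP, 1.5 μM Histone H1 in HEPES pH 7.5 buffer. ADP formed read by ADP-Glo luminescence; IC50 from four-parameter fit.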

Assay [3] concerns Kuramochi cells. The experiment in a line: IncuCyte cell proliferation assay. Type of assay: cell-based. The settings on record: Kuramochi cells labeled with mApple-H2B, cell count 0 to 72 hours, 20 μM top concentration; read-out: IncuCyte Kuramochi RB-WT: IC50. Put shortly: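 Kuramochi cells expressing mApple-H2B were treated with a 10-point, ½-log dilution series (top 20 μM). Fluorescent nuclei were counted by IncuCyte imaging at 0 and 72 h. The fold change in cell count was normalized to DMSO wells and fitted to dose-response curves to give […].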

Some results are limits rather than exact numbers.

On to `COC(=O)[C@@H]1CCCCN1C(=O)[C@@H](NC(=O)[C@@H]1CN(C(=O)c2cnn(Cc3ccccc3)c2)CC12CN(C(=O)[C@H]1CC1(C)C)C2)[C@@H](C)OCC1CCCCC1` [Example I-38], for which the IC50 in assay [1] is < 0.01 µM; in assay [2], < 0.5 µM; in assay [3], < 0.5 µM.
With `COC(=O)CCNC(=O)[C@@H](NC(=O)[C@@H]1CN(C(=O)c2cnn(Cc3ccccc3)c2)CC12CN(C(=O)[C@H]1CC1(C)C)C2)[C@@H](C)OCC1CCCCC1` [Example I-42], the IC50 in assay [1] is < 0.01 µM; in assay [2] it was < 0.5 µM; in assay [3], < 0.5 µM.
Regarding `C[C@@H](OCC1CCCCC1)[C@H](NC(=O)[C@@H]1CN(C(=O)c2cnn(Cc3ccccc3)c2)CC12CN(C(=O)[C@H]1CC1(C)C)C2)C(=O)NCCC(=O)O` [Example I-41, 3-((2S,3R)-2-((S)-6-(1-benzyl-1H-pyrazole-4-carbonyl)-2-((S)-2,2-dimethylcyclopropane-1-carbonyl)-2,6-diazaspiro[3.4]octane-8-carboxamido)-3-(cyclohexylmethoxy)butanamido)propanoic acid], the IC50 was < 0.01 µM in assay [1], < 0.5 µM in assay [2] and > 20 µM in assay [3].
On to `COC(=O)[C@@H](NC(=O)[C@@H]1CN(C(=O)c2cnn(Cc3ccccc3)c2)CC12CN(C(=O)[C@H]1CC1(C)C)C2)[C@@H](C)OCC1CCC2(CCC2)CC1` [Example I-43], for which the IC50 in assay [1] is < 0.01 µM; in assay [2], < 0.5 µM; in assay [3], 0.5 to 5 µM.
